Results on eight molecules are retold here after PubChem BioAssay (NCI).

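These data come from cells grown in 96-well plates and exposed to compound for 48 hours at five concentrations. GI50 = concentration required for 50% inhibition of growth. At the TGI there is no net growth.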 Bounds are passed on as bounds.

Among the test systems are OVCAR-8 ovarian; MDA-MB-435; HOP-92 NSCLC; RXF 393 renal; CAKI-1 renal; OVCAR-5 ovarian; HCT-116 colon; K-562 leukemia; DU-145 prostate; NCI-H522 lung.
Holding throughout (test): growth of human tumour cells (NCI), 48 h

On to `Cn1c(=O)c(Oc2ccccc2F)cc2cnc(NC3CCOCC3)nc21`, for which the GI50 with OVCAR-8 ovarian is over 25 µM; in the assay with MDA-MB-435 it was over 25 µM; in the assay with HOP-92 NSCLC, 1.25 µM; in the assay with RXF 393 renal it was over 25 µM; in the assay with CAKI-1 renal, over 25 µM; in the assay with OVCAR-5 ovarian it was over 25 µM. In addition, the GI50 in the assay with HCT-116 colon, with K-562 leukemia, with DU-145 prostate and with NCI-H522 lung was over 25 µM in each case. Also, the TGI in the assay on OVCAR-8 ovarian was over 25 µM; with MDA-MB-435, over 25 µM; in the assay with HOP-92 NSCLC, 22.8 µM; in the assay on RXF 393 renal it was over 25 µM; in the assay with CAKI-1 renal, over 25 µM; with OVCAR-5 ovarian it was over 25 µM. In addition, the TGI in the assay on HCT-116 colon, with K-562 leukemia, in the assay on DU-145 prostate and in the assay on NCI-H522 lung was over 25 µM each time.
In the case of `COc1ccccc1NC(=O)n1nc(N)c2ccccc21`, the GI50 was over 78.3 µM with OVCAR-8 ovarian; over 100 µM with MDA-MB-435; 22.7 µM with HOP-92 NSCLC; 36.7 µM with RXF 393 renal; over 100 µM in the assay on CAKI-1 renal; over 100 µM with OVCAR-5 ovarian. Also, the GI50 in the assay on HCT-116 colon is over 71.7 µM; in the assay on K-562 leukemia, 99.8 µM; in the assay with DU-145 prostate it was over 100 µM; with NCI-H522 lung, 53.9 µM. The TGI is over 100 µM in the assay with OVCAR-8 ovarian; over 100 µM in the assay on MDA-MB-435; 76.5 µM with HOP-92 NSCLC; over 100 µM with RXF 393 renal; over 100 µM with CAKI-1 renal; over 100 µM in the assay on OVCAR-5 ovarian. Moreover, the TGI with HCT-116 colon, with K-562 leukemia, in the assay with DU-145 prostate and with NCI-H522 lung was over 100 µM throughout.
Regarding `C=C1C(=O)O[C@H]2[C@H]1CC/C(COC(=O)NCc1ccc(Cn3c(=O)sn(CCCCl)c3=O)cc1)=C\CC[C@@]1(C)O[C@@H]21`, the GI50 is 2.32 µM with OVCAR-8 ovarian; 1.8 µM with MDA-MB-435; 1.1 µM with HOP-92 NSCLC; 1.35 µM with RXF 393 renal; 2.05 µM in the assay on CAKI-1 renal; 2.64 µM in the assay with OVCAR-5 ovarian. Moreover, the GI50 with HCT-116 colon is 0.565 µM; with K-562 leukemia, 0.726 µM; with DU-145 prostate, 1.64 µM; in the assay on NCI-H522 lung, 0.538 µM. Further, the TGI with OVCAR-8 ovarian was 5.42 µM; with MDA-MB-435, 3.89 µM; in the assay with HOP-92 NSCLC, 2.47 µM; in the assay on RXF 393 renal it was 2.8 µM; in the assay with CAKI-1 renal, 5.33 µM; with OVCAR-5 ovarian, 5.95 µM. Moreover, the TGI in the assay with HCT-116 colon is 1.87 µM; with K-562 leukemia it was over 100 µM; in the assay with DU-145 prostate, 3.15 µM; with NCI-H522 lung it was 1.94 µM.
On to `O=C1C=C(Br)C(=O)C12CCc1ccccc12` (stereo not given), for which the TGI turned out to be 64.6 µM with OVCAR-8 ovarian; 31.8 µM in the assay with MDA-MB-435; 27.3 µM in the assay on HOP-92 NSCLC; 19.1 µM in the assay on RXF 393 renal; 16.3 µM in the assay with CAKI-1 renal; 33.3 µM with OVCAR-5 ovarian. The TGI in the assay with HCT-116 colon was determined as 28.7 µM; with K-562 leukemia it was 9.26 µM; in the assay with DU-145 prostate, 31.7 µM; in the assay on NCI-H522 lung it was 10.2 µM.
On to `COC1CC2C=C(C)/C=C/C=C/C(=O)NC(c3ccccc3)C/C=C/CCC(O)CC(=O)C2=C1O` (stereo not given), for which the GI50 with OVCAR-8 ovarian was 0.208 µM; in the assay with MDA-MB-435 it was 0.313 µM; in the assay with HOP-92 NSCLC, 0.141 µM; with RXF 393 renal, 0.314 µM; with CAKI-1 renal it was 0.314 µM; in the assay with OVCAR-5 ovarian, 0.357 µM. The GI50 with HCT-116 colon is 0.272 µM; in the assay with K-562 leukemia, 0.212 µM; in the assay on DU-145 prostate, 0.405 µM; in the assay on NCI-H522 lung it was 0.211 µM. For the same molecule, the TGI turned out to be 0.904 µM with OVCAR-8 ovarian; 1.29 µM in the assay on MDA-MB-435; 0.457 µM in the assay on HOP-92 NSCLC; 1.09 µM with RXF 393 renal; 1.01 µM with CAKI-1 renal; 1.24 µM in the assay with OVCAR-5 ovarian. Besides, the TGI in the assay with HCT-116 colon came to 1.22 µM; in the assay with K-562 leukemia, 1.03 µM; in the assay with DU-145 prostate, 1.57 µM; in the assay with NCI-H522 lung it was 0.693 µM.
With `Cc1cc(C)c(C[N+](C)(C)C)c(C)c1C`, the GI50 with OVCAR-8 ovarian was 0.328 µM; in the assay on MDA-MB-435, 0.328 µM; with HOP-92 NSCLC, 0.285 µM; in the assay with RXF 393 renal, 0.249 µM; in the assay on CAKI-1 renal it was 0.281 µM; with OVCAR-5 ovarian, 0.48 µM. For the same molecule, the GI50 in the assay with HCT-116 colon was 0.32 µM; with K-562 leukemia, 0.416 µM; in the assay with DU-145 prostate it was 0.347 µM; with NCI-H522 lung, 0.208 µM. In addition, the TGI in the assay on OVCAR-8 ovarian was over 41.6 µM; in the assay on MDA-MB-435, 12.5 µM; with HOP-92 NSCLC, 13.5 µM; with RXF 393 renal, 3.43 µM; with CAKI-1 renal it was over 26 µM; with OVCAR-5 ovarian, over 62.1 µM. Further, the TGI is 24.8 µM with HCT-116 colon, over 100 µM with K-562 leukemia, 11.4 µM in the assay on DU-145 prostate and 2.61 µM with NCI-H522 lung.
On to `CC(C)c1ccc(/C(C(=O)O)=C(\O)C(=O)O)cc1`, for which the TGI with OVCAR-8 ovarian, in the assay with MDA-MB-435, in the assay on HOP-92 NSCLC, in the assay with RXF 393 renal, with CAKI-1 renal and with OVCAR-5 ovarian was over 100 µM in each case. Besides, the TGI with HCT-116 colon, with K-562 leukemia, in the assay on DU-145 prostate and in the assay with NCI-H522 lung was over 100 µM in each case.
Regarding `Cc1nc2ccc(Nc3nc(NCCN4CCOCC4)nc(Nc4ccc(F)cc4)n3)cc2n1Cc1ccccc1`, the GI50 in the assay on OVCAR-8 ovarian was 3.28 µM; in the assay with MDA-MB-435, 2.23 µM; in the assay with HOP-92 NSCLC it was 1.59 µM; in the assay on RXF 393 renal, 1.59 µM; with CAKI-1 renal it was 2.55 µM; with OVCAR-5 ovarian, 2.71 µM. For the same molecule, the GI50 in the assay on HCT-116 colon is 2.02 µM; in the assay on K-562 leukemia it was 1.79 µM; in the assay with DU-145 prostate, 5.56 µM; in the assay on NCI-H522 lung, 2.92 µM. For the same molecule, the TGI in the assay on OVCAR-8 ovarian was over 100 µM; in the assay with MDA-MB-435 it was 6.25 µM; in the assay on HOP-92 NSCLC, 6.48 µM; in the assay with RXF 393 renal, 4.07 µM; in the assay on CAKI-1 renal it was 65 µM; in the assay on OVCAR-5 ovarian, 13.6 µM. In addition, the TGI in the assay with HCT-116 colon worked out at 5.43 µM; with K-562 leukemia, 7.42 µM; with DU-145 prostate, 71.6 µM; in the assay with NCI-H522 lung, 9.48 µM.
